Results taken from paper PMC10374545, “A small molecule inhibitor of PTP1B and PTPN2 enhances T cell anti-tumor immunity” (Nature Communications, 2023).
Values joined by “and” are separate entries in the source; they are usually repeats but may differ in a detail not shown here. Equal values may be shown once.

Assays:
[1] = system: AT3 mammary tumors; test: AT3 tumor growth, Compound 182 with α-PD-1 checkpoint blockade; type: in vivo, mouse
Method: Male or female mice were injected subcutaneously with 5 × 10^5 MC38 tumor cells resuspended in 100 μl D-PBS into the flank. Alternatively, female mice were injected orthotopically with 5 × 10^5 AT3 or AT3-OVA or PTPN2-deleted AT3 or AT3-OVA tumor cells resuspended in 20 μl D-PBS into the fourth mammary fat pad. Tumor sizes were measured in two dimensions (mm^2) using electronic callipers two to three times per week as soon as tumors were palpable (20–25 mm^2).
In addition, mice received four intraperitoneal injections of α-PD-1 (200 μg in 200 μl D-PBS; clone RMP1-14), or rat IgG2a isotype control (100 μg in 200 μl D-PBS, Bio X Cell) twice per week.

[2] = biological target: T1, PTPN2 (Homo sapiens, UniProt P17706); test: PTP inhibition assay with DiFMUP substrate (IC50); type: biochemical
T1 construct: PTPN2, residues 1-387; made in house; host or cells: E. coli BL21(DE3)
T1 sequence (P17706 1-387 isoform P17706-2): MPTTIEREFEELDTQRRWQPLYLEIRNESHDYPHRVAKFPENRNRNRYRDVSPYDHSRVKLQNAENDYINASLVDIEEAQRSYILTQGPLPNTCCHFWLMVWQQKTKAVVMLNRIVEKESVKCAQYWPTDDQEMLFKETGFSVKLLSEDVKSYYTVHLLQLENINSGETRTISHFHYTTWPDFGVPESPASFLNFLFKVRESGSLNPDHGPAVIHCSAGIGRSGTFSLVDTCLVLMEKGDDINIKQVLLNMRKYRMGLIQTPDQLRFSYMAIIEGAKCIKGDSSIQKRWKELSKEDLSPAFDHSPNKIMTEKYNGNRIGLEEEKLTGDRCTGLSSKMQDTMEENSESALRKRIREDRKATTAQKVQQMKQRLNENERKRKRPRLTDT
Method: E. coli BL21(DE3) (Novagen) was used as an expression host and the induction of protein expression was carried out in LB media with 1 mM IPTG at 18 °C overnight. Cell pellets were stored at −80 °C for subsequent protein purification.
Protein purification of PTPs for enzymatic assays was conducted at 4 °C. Frozen cell pellets were lysed by sonication in 40 ml cold lysis buffer (50 mM Tris-HCl, pH 8.0, 150 mM NaCl, 5 mM imidazole, and 1 mM PMSF) per litre cell pellet. Cell lysates were clarified by centrifugation using a Beckman JA-18 rotor for 15 min at 5308 x g. The supernatant was incubated with HisPur Ni-NTA resin (Thermo Scientific) for 2 h and then packed onto a column and washed with 50 resin volume of buffer A (50 mM Tris-HCl, pH 8.0, 500 mM NaCl, 5 mM imidazole). The His-tagged proteins were eluted with Buffer B (50 mM Tris-HCl, pH=8.0, 500 mM NaCl, 300 mM imidazole,). Pooled His-protein-containing fractions were concentrated, loaded onto a HiLoad 26/600 Superdex 75 column (GE Healthcare Biosciences) and eluted with storage buffer (50 mM Tris-HCl, pH 8.0, 150 mM NaCl, 1 mM DTT, 10% glycerol). […] The protein was aliquoted and stored at −80 °C.
The PTP kinetic assay was modified from previous reported protocols[73],[74]. […] The fluorescence signal was measured using a CLARIOstar Plus Microplate Spectrophotometer (BMG Labtech) using excitation and emission wavelengths of 340 nm and 450 nm, respectively. […]
To determine the mode of inhibition, the reactions were initiated by the addition of enzyme (final concentration for PTP1B and PTPN2 was 0.05 nM) to the reaction mixtures (0.2 ml) containing various concentrations of DiFMUP with different concentrations of the inhibitor. […] The fluorescence signal was measured using a CLARIOstar Plus Microplate Spectrophotometer (BMG Labtech) using excitation and emission wavelength of 340 nm and 450 nm, respectively. […]

[3] = system: OT-I CD8+ T cells; test: Intracellular IFNγ, TNF and Granzyme B in activated OT-I T cells; type: cell-based, mouse; set-up: Grzmb, single replicates / IFN TNF, single replicates / IFN TNF, column mean / Grzmb, difference between medians: Actual / Grzmb, difference between medians: Hodges-Lehmann / IFN TNF, group mean (Mean 2): unit not given here; settings: for IFN TNF, group mean (Mean 2): N 6
Method: Single-cell suspensions from spleens and lymph nodes were obtained as described previously. For the detection of intracellular cytokines and granzyme B, T cells were fixed and permeabilized with the BD Cytofix/Cytoperm kit according to the manufacturer’s instructions. Briefly, T cells were first surface stained with fluorophore-conjugated antibodies and then fixed followed by permeabilization on ice for 20 min. Fixed and permeabilized cells were stained for IFN-γ, TNF, and granzyme B for 45 min at room temperature. For the detection of intracellular FoxP3 the Foxp3/Transcription Factor Staining Buffer Set (eBioscience) was used according to the manufacturer’s instructions. Briefly, cells were fixed and permeabilized for 1 h on ice followed by intracellular staining at room temperature for 45 min. For the detection of serum cytokines, the BD CBA Mouse Inflammation Kit™ was used according to the manufacturers’ instructions.
For the detection of intracellular IFNγ, TNF and Granzyme B, single-cell suspensions were obtained from lymph nodes of wild type (OT-I;Ptpn2^fl/fl) or PTPN2-deficient (OT-I;Lck-Cre;Ptpn2^fl/fl) mice and stimulated with 1 nM N4 peptide for 16 h and rested in complete T cell media supplemented with IL-2 (5 ng/ml) and IL-7 (0.2 ng/ml) for 2 days. […] Cells were then stained with fluorophore-conjugated antibodies to cell surface CD8 and intracellular IFNγ, TNF, and Granzyme B and analyzed by flow cytometry.

[4] = N4 1nM, 1 μM, Fig. 2B raw data, listed as CMP-182

In the case of `CC(C)(O)CCOc1ccc2cc(O)c(N3CC(=O)NS3(=O)=O)c(F)c2c1` [Compound 182, 5-(1-Fluoro-3-hydroxy-7-(3-hydroxy-3-methylbutoxy)naphthalen-2-yl)−1,2,5-thiadiazolidin-3-one 1,1-dioxide], the “response of AT3 tumors to PD-1 checkpoint blockade” value ([1]; 10 mg/kg i.v. every 2 days with α-PD-1 200 μg i.p. twice per week) is reported as “rendered otherwise largely resistant AT3 tumors sensitive”, the “AT3 tumor growth, combination therapy” value ([1]; Compound 182 10 mg/kg i.v. + α-PD-1 200 μg i.p.) is reported as “marked repression” and the Tumour weights ([1]; Figure 9C, AT-3, individual mice, listed as CMP-182, in mg (unit assumed)) is reported as 195 and 335 and 220 and 301 and 250 and 332. For the same molecule, the IC50 ([2]; DiFMUP 10 μM as substrate) was 0.58 ± 0.02 nM, the IC50 ([2]; TC-PTP, DiFMUP 10 μM, pH 7.0, 25 °C) was 0.58 ± 0.02 nM and the “Grzmb, difference between medians: Actual” value ([3]; CMP-182 vs. DMSO, N4, Fig. 2B) was 672.5. The “Grzmb, difference between medians: Hodges-Lehmann” value ([3]; CMP-182 vs. DMSO, N4, Fig. 2B) was 741.5, the “Grzmb, single replicates” value [3, 4] was 3755 and 3056 and 3282 and 3899 and 3113 and 2884 and the “IFN TNF, single replicates” value [3, 4] was 32.6 and 31.1 and 31 and 36.2 and 30.7 and 32.8. The “IFN TNF, group mean (Mean 2)” value ([3]; N4 1nM, Fig. 2B) was 32.4, the “Grzmb, median of column B” value ([3]; N4, n=6, Fig. 2B) was 3198, n=6 and the “expression of Granzyme B, IFNγ and TNF” value ([3]; OT-I CD8+ T cells) was “increased expression”. For the same molecule, the “IFN TNF, single replicates” value ([3]; Vehicle (no N4), 1 μM, Fig. 2B raw data, listed as CMP-182) was 0.038 and 0.03 and 0.037 and 0.066 and 0.023 (2×), the “IFN TNF, group mean (Mean 2)” value ([3]; Vehicle (no N4), Fig. 2B) was 0.03617 and the “IFN TNF, column mean” value ([3]; mean over Vehicle and N4 1nM rows, two-way ANOVA, Fig. 2B) was 16.22.
